According to paper PMC6759624, “Unraveling Heparan Sulfate Proteoglycan Binding Motif for Cancer Cell Selectivity” (Frontiers in Oncology, 2019):

Key:
[1] = tested on: NT4 (NT4-biotin captured on streptavidin CM5 chip); assay: SPR, synthetic sulfated oligosaccharides injected over immobilized NT4; format: binding; conditions: for Kd (koff) / Ka (Kon) / Kd: immobilized NT4-biotin, HBS-EP+ pH 7.4, 1:1 Langmuir model, oligosaccharide as analyte; for Kd (koff): dissociation rate; for oligosaccharide binding to immobilized NT4 (in words): oligosaccharide 100 μg/ml (Figure 4E)
From the text: Eight-mer and nine-mer oligosaccharides S00 (GlcNAc-GlcA)4 α-paranitrophenyl, S04 (GlcNS-GlcA)4 α-paranitrophenyl, S06a (GlcA-GlcNS)2-(GlcA-GlcNS,6S)2-GlcA α-paranitrophenyl (9-mer), and S06b GlcNS-GlcA-GlcNS-IdoA,2S-GlcNS-IdoA,2S-GlcNS-GlcA α-paranitrophenyl were purchased from Iduron. In all oligosaccharides, the units were linked together by α (1–4) bonds only and carry a paranitrophenyl group. S12 (ΔHexA,2S α1-4 GlcNS,6S)3 (9-mer) was from Amsbio, and its first glycoside is unsaturated.
(§1) NT4-biotin was captured on a CM5 sensor chip where streptavidin had previously been immobilized by standard amine coupling. Briefly, the sensor chip surface was activated with a mixture of 0.1 M 1-ethyl-3(3-dimethylaminopropyl)-carbodiimide (EDC) and 0.4 M N-hydroxyl succinimide (NHS) for 7 min at a flow rate of 5 μl/min. Streptavidin was injected over the surface for 7 min, and finally, 1 M ethanolamine pH 8.5 was used to block any activated carboxyl groups. NT4-biotin, diluted in HBS-EP+ (Hepes 10 mM, NaCl 150 mM, EDTA 3.4 mM, 0.05% p20, pH 7.4) to 30 μg/ml, was injected for 2 min at a flow rate of 10 μl/min.
(§2) HSPG and oligosaccharides were diluted to different concentrations in HBS-EP+ and then injected over immobilized NT4 peptides. The sensor chip surface was regenerated with a short pulse of 10 mM NaOH/0.5 M NaCl 5 min after the end of the injections.
(§3) Kinetics were analyzed with the Biacore T100 evaluation 1.1.1 software using the 1:1 Langmuir model to fit the curves.

cancer cell lines = conditions: confocal microscopy, 37°C; "completely internalized only after 2 h"; ref [14], [16]; cited from earlier work
living cells = conditions: after 24 h; mass spectrometry; ref [14]; cited from earlier work
[2] = tested on: NT4 (NT4-biotin captured on streptavidin CM5 chip); assay: SPR, rHSPG injected over immobilized NT4 (Biacore T100); format: binding; conditions: for Ka (Kon): HBS-EP+ (Hepes 10 mM, NaCl 150 mM, EDTA 3.4 mM, 0.05% p20, pH 7.4), 1:1 Langmuir model, full-length recombinant human HSPG as analyte; for Kd (koff) / Kd: HBS-EP+ pH 7.4, 1:1 Langmuir model, rHSPG as analyte; for Kd (koff): dissociation rate
Experimental: Experiments were performed on a Biacore T100 instrument (GE Healthcare). All materials were purchased from GE Healthcare unless otherwise specified. Full-length recombinant human HSPG were purchased from R&D Systems. Syndecan-3, syndecan-4, and glypican-3 were obtained from the mouse myeloma cell line (NS0), and glypican-4 was obtained from the Chinese Hamster Ovary cell line. The activity of syndecan-4, glypican-3, and glypican-4 was measured by the supplier as the ability of the immobilized protein to bind FGF-basic. The activity of syndecan-3 was measured by the supplier as the ability of the immobilized protein to inhibit adhesion of Saos-2 human osteosarcoma cells to human fibronectin.
as §1, §2, §3

[3] = target: recombinant human glypican-3 (human, UniProt P51654 25-580); assay: SPR; Biacore T100; NT4-biotin captured on streptavidin on a CM5 chip; HSPG diluted in HBS-EP+ (Hepes 10 mM, NaCl 150 mM, EDTA 3.4 mM, 0.05% p20, pH 7.4) injected over it; 1:1 Langmuir model; conditions: both partners purified
[4] = target: T1, recombinant human glypican-4 (human, UniProt O75487 19-529); assay: as above; conditions: both partners purified
T1 construct: also called GPC4; rHSPG; source: bought: R&D Systems; from the Chinese Hamster Ovary cell line
T1 sequence (looked up): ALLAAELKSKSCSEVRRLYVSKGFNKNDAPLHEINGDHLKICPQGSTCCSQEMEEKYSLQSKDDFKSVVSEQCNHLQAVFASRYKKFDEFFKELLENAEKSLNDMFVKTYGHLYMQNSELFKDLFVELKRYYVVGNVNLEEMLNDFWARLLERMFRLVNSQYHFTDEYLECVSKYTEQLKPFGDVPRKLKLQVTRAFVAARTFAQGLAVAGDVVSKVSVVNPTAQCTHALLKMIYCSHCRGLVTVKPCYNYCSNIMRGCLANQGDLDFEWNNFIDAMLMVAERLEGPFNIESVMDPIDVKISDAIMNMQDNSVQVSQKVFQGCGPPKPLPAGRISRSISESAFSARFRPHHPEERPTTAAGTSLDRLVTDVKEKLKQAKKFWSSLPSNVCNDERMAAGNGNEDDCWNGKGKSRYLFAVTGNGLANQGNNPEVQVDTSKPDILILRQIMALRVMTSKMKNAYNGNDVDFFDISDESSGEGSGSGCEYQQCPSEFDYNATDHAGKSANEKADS

[5] = target: recombinant human syndecan-4 (human, UniProt P31431 19-198); assay: as above; conditions: both partners purified

## (GlcA-GlcNS)2-(GlcA-GlcNS,6S)2-GlcA α-paranitrophenyl [S06a]
[1]
  Kd (koff): 0.002575 s⁻¹
  Ka (Kon): 1060 M⁻¹ s⁻¹
  Kd: 2430 nM
  oligosaccharide binding to immobilized NT4 (in words): bound NT4 better

## (GlcNS-GlcA)4 α-paranitrophenyl [S04]
[1]
  oligosaccharide binding to immobilized NT4 (in words): almost total loss of binding

## (pyELYENKPRRPYIL)4K2K-PEG12-K(biotin) [NT4-biotin]
Cancer cell lines
  time to complete internalization: 2 h
Living cells
  stability on degradation by living cells: still stable after 24 h

## (ΔHexA,2S α1-4 GlcNS,6S)3 [S12]
[1]
  Kd (koff): 0.0009126 s⁻¹
  Ka (Kon): 3530 M⁻¹ s⁻¹
  Kd: 258 nM
  oligosaccharide binding to immobilized NT4 (in words): best-binding oligosaccharide

## GlcNS-GlcA-GlcNS-IdoA,2S-GlcNS-IdoA,2S-GlcNS-GlcA α-paranitrophenyl [S06b]
[1]
  Kd (koff): 0.004039 s⁻¹
  Ka (Kon): 1490 M⁻¹ s⁻¹
  Kd: 2700 nM

## Glypican-3: full-length recombinant human HSPG from mouse myeloma cell line (NS0), R&D Systems
[2]
  Ka (Kon): 23920 M⁻¹ s⁻¹
  Kd (koff): 0.001433 s⁻¹
  Kd: 59.9 nM

B1: NT4-biotin (pyELYENKPRRPYIL)4K2K-PEG12-K(biotin) (peptide)
peptide: ELYENKPRRPYIL
modifications: pyroglutamate at position 1 (pyE); the four arms are built on a branching core of lysines, K2K-PEG12-K(biotin)
notes: the 13-amino-acid arm of the tetrabranched peptide; the first letter is pyroglutamate (printed pyE); Tetrabranched: four copies of the arm joined by their C-termini to the amines of a three-lysine core (K2K), followed by PEG12 and Lys(biotin); The core is not written as a chain; also called NT4 peptide; NT4 conjugated with biotin; source: synthetic peptide (Fmoc chemistry, HPLC purified); not …
[3]
  Kd: 59.9 nM
  koff: 0.00143 s⁻¹
  kon: 23900 M⁻¹ s⁻¹
[4]
  Kd: 77.1 nM
  koff: 0.000672 s⁻¹
  kon: 8710 M⁻¹ s⁻¹
[5]
  Kd: 257 nM
  koff: 0.00232 s⁻¹
  kon: 9010 M⁻¹ s⁻¹

B2: Syndecan-4: full-length recombinant human HSPG from mouse myeloma cell line (NS0), R&D Systems (protein)
chain: ESIRETEVIDPQDLLEGRYFSGALPDDEDVVGPGQESDDFELSGSGDLDDLEDSMIGPEVVHPLVPLDNHIPERAGSGSQVPTEPKKLEENEVIPKRISPVEESEDVSNKVSMSSTVQGSNIFERTEVLAALIVGGIVGILFAVFLILLLMYRMKKKDEGSYDLGKKPIYKKAPTNEFYA
[2]
  Ka (Kon): 9010 M⁻¹ s⁻¹
  Kd (koff): 0.002316 s⁻¹
  Kd: 257 nM

B3: Glypican-4: full-length recombinant human HSPG from Chinese Hamster Ovary cell line, R&D Systems (protein)
chain: T1 sequence (looked up)
[2]
  Ka (Kon): 8710 M⁻¹ s⁻¹
  Kd (koff): 0.0006719 s⁻¹
  Kd: 77.1 nM
